PubChem BioAssay AID1918999 (Molecular Pharmacology Branch, DTP, NCI, 2023)
pIC50: −log10 of the molar value.

Test system: 556581-035-R-J1-PDC complex spheroid growth
Experiment: Anticancer human tumor 556581-035-R-J1-PDC patient-derived ovarian carcinoma cell line growth inhibition [AhR]
Settings: for pIC50: curve of first compound; for viability, T/C: stronger effect = lower value; active = viability on the fitted dose curve at most 10% of control; inactive = the rest
Summary of the method: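 Spheroids combined tumor cells with HUVEC endothelial cells and human MSCs as stroma. AhR antagonists were paired with standard or investigational drugs, each dosed in half-log steps down from near clinical Cmax, or from 10 microM where Cmax was unknown.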

[1] = second compound 0.1 µM, first compound 0.0316 µM
[2] = second compound 0.1 µM, first compound 0.1 µM
[3] = second compound 0.316 µM, first compound 0.0316 µM
[4] = second compound 0.316 µM, first compound 0.1 µM
[5] = second compound 1 µM, first compound 0.0316 µM
[6] = second compound 1 µM, first compound 0.1 µM
[7] = second compound 3.16 µM, first compound 0.0316 µM
[8] = second compound 3.16 µM, first compound 0.1 µM
[9] = second compound 10 µM, first compound 0.0316 µM
[10] = second compound 10 µM, first compound 0.1 µM
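For viability, T/C in this document: compound exposure lasted 7 days; 100% = DMSO vehicle control growth.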

COc1cc(Nc2ncc3c(n2)-c2ccc(Cl)cc2C(c2c(F)cccc2OC)=NC3)ccc1C(=O)O + Cc1cncc(-c2nc(NCCc3c[nH]c4ccccc34)c3ncn(C(C)C)c3n2)c1
inactive: viability, T/C [1] 97.2% | viability, T/C [2] 83.4% | viability, T/C (second compound 0.1 µM, first compound 0.316 µM) 79.5% | viability, T/C (second compound 0.1 µM, first compound 1 µM) 71.2% | viability, T/C (second compound 0.1 µM, first compound 3.16 µM) 71.1% | viability, T/C (second compound 0.1 µM, first compound 10 µM) 58.4% | viability, T/C [3] 91.5% | viability, T/C [4] 87.9% | viability, T/C (second compound 0.316 µM, first compound 0.316 µM) 72.5% | viability, T/C (second compound 0.316 µM, first compound 1 µM) 76.8% | viability, T/C (second compound 0.316 µM, first compound 3.16 µM) 62.1% | viability, T/C (second compound 0.316 µM, first compound 10 µM) 62.3% | viability, T/C [5] 84.9% | viability, T/C [6] 81.9% | viability, T/C (second compound 1 µM, first compound 0.316 µM) 78.7% | viability, T/C (second compound 1 µM, first compound 1 µM) 72.6% | viability, T/C (second compound 1 µM, first compound 3.16 µM) 67.8% | viability, T/C (second compound 1 µM, first compound 10 µM) 65.9% | viability, T/C [7] 86.2% | viability, T/C [8] 76.9% | viability, T/C (second compound 3.16 µM, first compound 0.316 µM) 77.2% | viability, T/C (second compound 3.16 µM, first compound 1 µM) 73.2% | viability, T/C (second compound 3.16 µM, first compound 3.16 µM) 72.8% | viability, T/C (second compound 3.16 µM, first compound 10 µM) 65.9% | viability, T/C [9] 89.4% | viability, T/C [10] 74.1% | viability, T/C (second compound 10 µM, first compound 0.316 µM) 78.1% | viability, T/C (second compound 10 µM, first compound 1 µM) 70.7% | viability, T/C (second compound 10 µM, first compound 3.16 µM) 71% | viability, T/C (second compound 10 µM, first compound 10 µM) 75.2%
< 5.00: pIC50 (second compound 0.1 µM) | pIC50 (second compound 0.316 µM) | pIC50 (second compound 1 µM) | pIC50 (second compound 3.16 µM) | pIC50 (second compound 10 µM)

Cn1ncnc1C1c2n[nH]c(=O)c3cc(F)cc(c23)NC1c1ccc(F)cc1 (stereo not given) + Cc1cncc(-c2nc(NCCc3c[nH]c4ccccc34)c3ncn(C(C)C)c3n2)c1
< 7.00: pIC50 (second compound 0.1 µM) | pIC50 (second compound 0.316 µM) | pIC50 (second compound 1 µM) | pIC50 (second compound 3.16 µM) | pIC50 (second compound 10 µM)
inactive: viability, T/C (second compound 0.1 µM, first compound 0.000316 µM) 105% | viability, T/C (second compound 0.1 µM, first compound 0.001 µM) 102% | viability, T/C (second compound 0.1 µM, first compound 0.00316 µM) 95.1% | viability, T/C (second compound 0.1 µM, first compound 0.01 µM) 110% | viability, T/C [1] 92.4% | viability, T/C [2] 90.3% | viability, T/C (second compound 0.316 µM, first compound 0.000316 µM) 99.2% | viability, T/C (second compound 0.316 µM, first compound 0.001 µM) 99.3% | viability, T/C (second compound 0.316 µM, first compound 0.00316 µM) 101% | viability, T/C (second compound 0.316 µM, first compound 0.01 µM) 89.8% | viability, T/C [3] 86.9% | viability, T/C [4] 86.6% | viability, T/C (second compound 1 µM, first compound 0.000316 µM) 96.1% | viability, T/C (second compound 1 µM, first compound 0.001 µM) 104% | viability, T/C (second compound 1 µM, first compound 0.00316 µM) 102% | viability, T/C (second compound 1 µM, first compound 0.01 µM) 102% | viability, T/C [5] 103% | viability, T/C [6] 98.6% | viability, T/C (second compound 3.16 µM, first compound 0.000316 µM) 90.6% | viability, T/C (second compound 3.16 µM, first compound 0.001 µM) 107% | viability, T/C (second compound 3.16 µM, first compound 0.00316 µM) 97.7% | viability, T/C (second compound 3.16 µM, first compound 0.01 µM) 91.8% | viability, T/C [7] 85.2% | viability, T/C [8] 101% | viability, T/C (second compound 10 µM, first compound 0.000316 µM) 87.2% | viability, T/C (second compound 10 µM, first compound 0.001 µM) 83.4% | viability, T/C (second compound 10 µM, first compound 0.00316 µM) 92% | viability, T/C (second compound 10 µM, first compound 0.01 µM) 85.7% | viability, T/C [9] 89.9% | viability, T/C [10] 79.1%
